In PMC7347136 (PLoS ONE, 2020):

Tests used:
Test in all cases: Carna kinase panel screen
Format in all cases: biochemical
Settings in all cases: read-out: % Inhibition ± SD
ABL = target: T1, ABL (Homo sapiens, UniProt P00519)
T1 construct: purchased Carna Biosciences
Description: (§1) IC50 values were determined from a 10-point concentration curve using ATP concentrations approximating Km values. […] The percentage inhibition of each test solution was calculated, which allowed the IC50 value to be determined from concentration versus percentage inhibition curves by fitting to a four parameter logistic curve.

AKT1 = target: T2, AKT1 (Homo sapiens, UniProt P31749)
T2 construct: purchased Carna Biosciences
Description: as §1

BRK = target: T3, BRK (Homo sapiens, UniProt Q13882)
T3 construct: purchased Carna Biosciences
Description: as §1

CDK2 = target: T4, CDK2 (Homo sapiens, UniProt P24941)
T4 construct: purchased Carna Biosciences
Description: as §1

CGK2 = target: T5, CGK2 (Homo sapiens, UniProt Q13237)
T5 construct: purchased Carna Biosciences
Description: as §1

CHK2 = target: T6, CHK2 (Homo sapiens, UniProt O96017)
T6 construct: purchased Carna Biosciences
Description: as §1

COT = target: T7, COT (Homo sapiens, UniProt P41279)
T7 construct: purchased Carna Biosciences
Description: as §1

CRIK = target: T8, CRIK (Homo sapiens, UniProt O14578)
T8 construct: purchased Carna Biosciences
Description: as §1

CaMK2a = target: T9, CaMK2a (Homo sapiens, UniProt Q9UQM7)
T9 construct: purchased Carna Biosciences
Description: as §1

DYRK2 = target: T10, DYRK2 (Homo sapiens, UniProt Q92630)
T10 construct: purchased Carna Biosciences
Description: as §1

EphA2 = target: T11, EphA2 (Homo sapiens, UniProt P29317)
T11 construct: purchased Carna Biosciences
Description: as §1

EphA4 = target: T12, EphA4 (Homo sapiens, UniProt P54764)
T12 construct: purchased Carna Biosciences
Description: as §1

EphA6 = target: T13, EphA6 (Homo sapiens, UniProt Q9UF33)
T13 construct: purchased Carna Biosciences
Description: as §1

EphA7 = target: T14, EphA7 (Homo sapiens, UniProt Q15375)
T14 construct: purchased Carna Biosciences
Description: as §1

Erk1 = target: T15, Erk1 (Homo sapiens, UniProt P27361)
T15 construct: purchased Carna Biosciences
Description: as §1

FES = target: T16, FES (Homo sapiens, UniProt P07332)
T16 construct: purchased Carna Biosciences
Description: as §1

FRK = target: T17, FRK (Homo sapiens, UniProt P42685)
T17 construct: purchased Carna Biosciences
Description: as §1

FYN = target: T18, FYN (Homo sapiens, UniProt P06241)
T18 construct: purchased Carna Biosciences
Description: as §1

HCK = target: T19, HCK (Homo sapiens, UniProt P08631)
T19 construct: purchased Carna Biosciences
Description: as §1

HIPK1 = target: T20, HIPK1 (Homo sapiens, UniProt Q86Z02)
T20 construct: purchased Carna Biosciences
Description: as §1

JNK2 = target: T21, JNK2 (Homo sapiens, UniProt P45984)
T21 construct: purchased Carna Biosciences
Description: as §1

KIT = target: T22, KIT (Homo sapiens, UniProt P10721)
T22 construct: purchased Carna Biosciences
Description: as §1

MAP2K4 = target: T23, MAP2K4 (Homo sapiens, UniProt P45985)
T23 construct: purchased Carna Biosciences
Description: as §1

MAP3K5 = target: T24, MAP3K5 (Homo sapiens, UniProt Q99683)
T24 construct: purchased Carna Biosciences
Description: as §1

MAPKAPK5 = target: T25, MAPKAPK5 (Homo sapiens, UniProt Q8IW41)
T25 construct: purchased Carna Biosciences
Description: as §1

MARK2 = target: T26, MARK2 (Homo sapiens, UniProt Q7KZI7)
T26 construct: purchased Carna Biosciences
Description: as §1

MLK1 = target: T27, MLK1 (Homo sapiens, UniProt P80192)
T27 construct: purchased Carna Biosciences
Description: as §1

MLK2 = target: T28, MLK2 (Homo sapiens, UniProt Q02779)
T28 construct: purchased Carna Biosciences
Description: as §1

NDR1 = target: T29, NDR1 (Homo sapiens, UniProt Q15208)
T29 construct: purchased Carna Biosciences
Description: as §1

NEK7 = target: T30, NEK7 (Homo sapiens, UniProt Q8TDX7)
T30 construct: purchased Carna Biosciences
Description: as §1

PAK1 = target: T31, PAK1 (Homo sapiens, UniProt Q13153)
T31 construct: purchased Carna Biosciences
Description: as §1

PAK6 = target: T32, PAK6 (Homo sapiens, UniProt Q9NQU5)
T32 construct: purchased Carna Biosciences
Description: as §1

PGK = target: T33, PGK (Homo sapiens, UniProt Q13976)
T33 construct: purchased Carna Biosciences
Description: as §1

PKCq = target: T34, PKCq (Homo sapiens, UniProt Q04759)
T34 construct: purchased Carna Biosciences
Description: as §1

PKCz = target: T35, PKCz (Homo sapiens, UniProt Q05513)
T35 construct: purchased Carna Biosciences
Description: as §1

PLK1 = target: T36, PLK1 (Homo sapiens, UniProt P53350)
T36 construct: purchased Carna Biosciences
Description: as §1

PLK4 = target: T37, PLK4 (Homo sapiens, UniProt O00444)
T37 construct: purchased Carna Biosciences
Description: as §1

RSK2 = target: T38, RSK2 (Homo sapiens, UniProt P51812)
T38 construct: purchased Carna Biosciences
Description: as §1

SLK = target: T39, SLK (Homo sapiens, UniProt Q9H2G2)
T39 construct: purchased Carna Biosciences
Description: as §1

SRM = target: T40, SRM (Homo sapiens, UniProt Q9H3Y6)
T40 construct: purchased Carna Biosciences
Description: as §1

TSSK2 = target: T41, TSSK2 (Homo sapiens, UniProt Q96PF2)
T41 construct: purchased Carna Biosciences
Description: as §1

TYK2 = target: T42, TYK2 (Homo sapiens, UniProt P29597)
T42 construct: purchased Carna Biosciences
Description: as §1

WNK1 = target: T43, WNK1 (Homo sapiens, UniProt Q9H4A3)
T43 construct: purchased Carna Biosciences
Description: as §1

p70S6Kb = target: T44, p70S6Kb (Homo sapiens, UniProt Q9UBS0)
T44 construct: purchased Carna Biosciences
Description: as §1

T14 sequence (Q15375 28-998): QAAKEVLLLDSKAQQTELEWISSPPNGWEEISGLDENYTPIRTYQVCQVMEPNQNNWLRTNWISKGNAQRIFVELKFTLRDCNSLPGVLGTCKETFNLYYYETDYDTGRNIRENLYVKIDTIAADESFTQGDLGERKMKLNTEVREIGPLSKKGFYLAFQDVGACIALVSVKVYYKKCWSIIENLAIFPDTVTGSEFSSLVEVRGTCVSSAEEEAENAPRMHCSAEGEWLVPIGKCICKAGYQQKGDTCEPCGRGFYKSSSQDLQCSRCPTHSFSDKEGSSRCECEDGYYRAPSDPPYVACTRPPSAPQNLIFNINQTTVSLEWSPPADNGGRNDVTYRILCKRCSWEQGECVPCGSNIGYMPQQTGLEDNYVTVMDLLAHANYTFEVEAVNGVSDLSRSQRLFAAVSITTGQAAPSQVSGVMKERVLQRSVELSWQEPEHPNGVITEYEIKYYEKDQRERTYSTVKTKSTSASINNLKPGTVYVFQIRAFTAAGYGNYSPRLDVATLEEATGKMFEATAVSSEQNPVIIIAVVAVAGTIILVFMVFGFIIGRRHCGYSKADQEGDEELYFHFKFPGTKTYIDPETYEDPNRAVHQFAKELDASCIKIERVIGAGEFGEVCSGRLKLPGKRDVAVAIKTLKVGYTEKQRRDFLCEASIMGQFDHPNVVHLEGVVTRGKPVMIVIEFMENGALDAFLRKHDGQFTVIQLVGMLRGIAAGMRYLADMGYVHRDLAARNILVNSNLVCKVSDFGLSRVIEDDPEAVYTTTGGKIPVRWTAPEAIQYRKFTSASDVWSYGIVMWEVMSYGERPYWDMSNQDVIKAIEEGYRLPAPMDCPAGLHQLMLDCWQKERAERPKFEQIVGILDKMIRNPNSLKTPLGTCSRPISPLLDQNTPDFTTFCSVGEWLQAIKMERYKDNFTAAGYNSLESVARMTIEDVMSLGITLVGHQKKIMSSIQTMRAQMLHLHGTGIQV
T5 sequence (Q13237 whole entry): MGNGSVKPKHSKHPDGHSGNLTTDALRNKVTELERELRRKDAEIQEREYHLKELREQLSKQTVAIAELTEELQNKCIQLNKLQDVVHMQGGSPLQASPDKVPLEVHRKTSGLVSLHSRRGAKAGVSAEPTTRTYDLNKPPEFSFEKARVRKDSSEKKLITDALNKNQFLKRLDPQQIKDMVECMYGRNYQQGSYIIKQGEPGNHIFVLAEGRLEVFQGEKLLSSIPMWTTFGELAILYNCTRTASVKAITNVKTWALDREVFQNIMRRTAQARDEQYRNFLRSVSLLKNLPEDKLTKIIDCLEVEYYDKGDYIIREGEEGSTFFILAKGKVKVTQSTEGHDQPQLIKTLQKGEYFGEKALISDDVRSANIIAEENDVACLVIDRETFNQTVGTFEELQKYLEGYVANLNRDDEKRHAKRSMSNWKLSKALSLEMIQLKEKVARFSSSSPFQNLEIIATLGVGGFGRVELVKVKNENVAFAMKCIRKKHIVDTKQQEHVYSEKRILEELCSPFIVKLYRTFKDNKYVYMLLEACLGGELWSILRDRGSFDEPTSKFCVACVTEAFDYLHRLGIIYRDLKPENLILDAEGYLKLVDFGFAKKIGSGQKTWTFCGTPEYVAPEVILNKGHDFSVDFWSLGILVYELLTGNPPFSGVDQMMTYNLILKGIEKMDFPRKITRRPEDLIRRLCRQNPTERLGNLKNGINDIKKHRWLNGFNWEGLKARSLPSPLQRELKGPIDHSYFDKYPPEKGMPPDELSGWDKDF
T1 sequence (P00519 whole entry): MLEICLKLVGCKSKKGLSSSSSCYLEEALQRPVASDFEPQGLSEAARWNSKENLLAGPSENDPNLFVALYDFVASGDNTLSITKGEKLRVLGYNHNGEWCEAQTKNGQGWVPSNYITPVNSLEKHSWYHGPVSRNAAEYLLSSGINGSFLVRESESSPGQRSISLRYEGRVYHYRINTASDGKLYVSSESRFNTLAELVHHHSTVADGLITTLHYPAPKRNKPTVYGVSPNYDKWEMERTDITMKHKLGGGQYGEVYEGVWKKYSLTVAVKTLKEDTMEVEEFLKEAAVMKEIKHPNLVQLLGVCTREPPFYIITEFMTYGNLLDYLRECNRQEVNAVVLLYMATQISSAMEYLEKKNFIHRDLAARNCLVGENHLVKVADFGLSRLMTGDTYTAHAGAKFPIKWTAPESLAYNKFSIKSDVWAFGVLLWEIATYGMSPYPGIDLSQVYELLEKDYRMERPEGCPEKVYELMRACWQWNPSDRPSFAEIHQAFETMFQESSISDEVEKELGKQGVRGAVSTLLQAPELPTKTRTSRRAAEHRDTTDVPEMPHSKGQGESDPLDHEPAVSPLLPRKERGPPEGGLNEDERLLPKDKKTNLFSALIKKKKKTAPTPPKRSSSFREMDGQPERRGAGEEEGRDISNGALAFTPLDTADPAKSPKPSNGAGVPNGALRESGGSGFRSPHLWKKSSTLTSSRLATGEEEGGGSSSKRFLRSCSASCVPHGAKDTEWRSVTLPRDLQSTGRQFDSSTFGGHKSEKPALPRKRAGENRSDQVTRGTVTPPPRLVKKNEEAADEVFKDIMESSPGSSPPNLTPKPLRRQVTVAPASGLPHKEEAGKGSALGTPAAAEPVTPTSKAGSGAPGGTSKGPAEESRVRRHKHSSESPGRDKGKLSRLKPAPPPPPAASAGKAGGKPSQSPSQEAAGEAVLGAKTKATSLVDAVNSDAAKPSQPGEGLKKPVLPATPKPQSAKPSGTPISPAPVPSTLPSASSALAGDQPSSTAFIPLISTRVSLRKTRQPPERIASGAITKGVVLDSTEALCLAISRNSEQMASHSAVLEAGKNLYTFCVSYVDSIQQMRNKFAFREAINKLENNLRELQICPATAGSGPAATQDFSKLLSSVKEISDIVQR
T31 sequence (Q13153 whole entry): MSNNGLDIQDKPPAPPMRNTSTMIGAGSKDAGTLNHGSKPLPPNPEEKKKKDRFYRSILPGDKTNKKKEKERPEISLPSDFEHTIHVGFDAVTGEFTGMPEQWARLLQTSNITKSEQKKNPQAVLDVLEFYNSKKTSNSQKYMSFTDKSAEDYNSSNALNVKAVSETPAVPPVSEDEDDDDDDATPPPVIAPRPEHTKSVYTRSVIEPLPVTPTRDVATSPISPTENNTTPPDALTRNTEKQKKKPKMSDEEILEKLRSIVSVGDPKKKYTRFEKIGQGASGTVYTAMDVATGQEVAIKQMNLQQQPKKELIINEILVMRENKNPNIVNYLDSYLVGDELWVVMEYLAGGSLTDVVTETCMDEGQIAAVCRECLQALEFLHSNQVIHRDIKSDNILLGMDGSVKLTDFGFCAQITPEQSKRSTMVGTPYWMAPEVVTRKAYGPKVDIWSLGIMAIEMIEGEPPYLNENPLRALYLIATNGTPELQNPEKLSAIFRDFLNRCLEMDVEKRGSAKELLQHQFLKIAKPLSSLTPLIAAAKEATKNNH
T41 sequence (Q96PF2 whole entry): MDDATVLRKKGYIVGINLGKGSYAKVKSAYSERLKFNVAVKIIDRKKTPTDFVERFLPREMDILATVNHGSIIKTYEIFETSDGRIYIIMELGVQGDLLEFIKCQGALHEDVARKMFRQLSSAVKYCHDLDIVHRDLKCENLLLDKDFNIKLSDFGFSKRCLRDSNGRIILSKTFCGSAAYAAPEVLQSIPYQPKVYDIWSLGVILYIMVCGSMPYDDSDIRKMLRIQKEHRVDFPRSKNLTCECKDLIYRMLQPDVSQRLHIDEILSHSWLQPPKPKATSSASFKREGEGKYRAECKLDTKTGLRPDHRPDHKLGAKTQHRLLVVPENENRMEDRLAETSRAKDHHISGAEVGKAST
T2 sequence (P31749 whole entry): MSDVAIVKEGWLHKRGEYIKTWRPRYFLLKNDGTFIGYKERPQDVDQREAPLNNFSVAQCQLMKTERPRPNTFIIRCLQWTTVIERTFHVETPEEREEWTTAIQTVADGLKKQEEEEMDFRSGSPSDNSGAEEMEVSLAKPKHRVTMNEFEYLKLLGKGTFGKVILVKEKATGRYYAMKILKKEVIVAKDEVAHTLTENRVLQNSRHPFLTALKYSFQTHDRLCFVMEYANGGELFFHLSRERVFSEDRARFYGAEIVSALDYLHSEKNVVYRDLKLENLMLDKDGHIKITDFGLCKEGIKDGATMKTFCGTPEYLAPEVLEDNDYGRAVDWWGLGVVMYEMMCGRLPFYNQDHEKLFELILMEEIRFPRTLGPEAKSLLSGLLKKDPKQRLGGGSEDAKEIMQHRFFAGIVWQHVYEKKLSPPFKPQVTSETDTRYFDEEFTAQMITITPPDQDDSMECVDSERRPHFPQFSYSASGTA
T35 sequence (Q05513 whole entry): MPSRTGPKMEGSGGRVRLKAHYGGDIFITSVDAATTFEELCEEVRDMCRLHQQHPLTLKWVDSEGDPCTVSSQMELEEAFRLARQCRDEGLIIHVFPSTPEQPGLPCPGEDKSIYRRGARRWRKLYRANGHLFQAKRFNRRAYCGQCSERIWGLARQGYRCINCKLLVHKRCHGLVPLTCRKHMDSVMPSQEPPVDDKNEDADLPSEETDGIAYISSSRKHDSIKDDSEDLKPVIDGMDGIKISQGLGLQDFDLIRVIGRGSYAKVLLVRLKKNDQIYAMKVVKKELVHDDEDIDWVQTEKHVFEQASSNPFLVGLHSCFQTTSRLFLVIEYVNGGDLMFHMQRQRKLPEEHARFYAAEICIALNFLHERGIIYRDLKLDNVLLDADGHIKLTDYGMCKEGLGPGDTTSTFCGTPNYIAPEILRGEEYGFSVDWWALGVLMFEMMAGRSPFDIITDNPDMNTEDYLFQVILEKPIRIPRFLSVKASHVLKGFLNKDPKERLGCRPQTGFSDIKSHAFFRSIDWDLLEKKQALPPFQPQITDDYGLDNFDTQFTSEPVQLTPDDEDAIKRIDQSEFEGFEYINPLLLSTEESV

Compound: CC[C@H](Nc1nc(NCc2cnc(C)cc2C)c2ncn(C(C)C)c2n1)[C@@H](C)O [Fadraciclib, 2-pentanol, 3-[[6-[[(4,6-dimethyl-3-pyridinyl)methyl]amino]-9-(1-methylethyl)-9Hpurin-2-yl]amino]-, (2R,3S)]
- inhibition at 1 µM (ABL): -12.7 ± 0.3%
- inhibition at 1 µM (AKT1): -0.6%
- inhibition at 1 µM (BRK): 2.4 ± 0.1%
- inhibition at 1 µM (CDK2): 97.3%
- inhibition at 1 µM (CGK2): -12.6 ± 0.5%
- inhibition at 1 µM (CHK2): -7.6 ± 0.1%
- inhibition at 1 µM (COT): -15.6 ± 0.4%
- inhibition at 1 µM (CRIK): -1.2%
- inhibition at 1 µM (CaMK2a): -3.6 ± 0.1%
- inhibition at 1 µM (DYRK2): -1.8 ± 0.1%
- inhibition at 1 µM (EphA2): 3.8%
- inhibition at 1 µM (EphA4): 1%
- inhibition at 1 µM (EphA6): 5.7 ± 0.3%
- inhibition at 1 µM (EphA7): 6 ± 0.3%
- inhibition at 1 µM (Erk1): -6.5%
- inhibition at 1 µM (FES): 14.9 ± 1.1%
- inhibition at 1 µM (FRK): 3.6%
- inhibition at 1 µM (FYN): 7.4 ± 0.3%
- inhibition at 1 µM (HCK): -4.9 ± 0.1%
- inhibition at 1 µM (HIPK1): 6.8 ± 0.3%
- inhibition at 1 µM (JNK2): -19.3 ± 2.2%
- inhibition at 1 µM (KIT): -2.4 ± 0.1%
- inhibition at 1 µM (MAP2K4): -2.7 ± 0.1%
- inhibition at 1 µM (MAP3K5): 5.2 ± 0.2%
- inhibition at 1 µM (MAPKAPK5): -14.5 ± 0.2%
- inhibition at 1 µM (MARK2): -1.9 ± 0.1%
- inhibition at 1 µM (MLK1): -11.2 ± 0.1%
- inhibition at 1 µM (MLK2): 0.6%
- inhibition at 1 µM (NDR1): 2 ± 0.1%
- inhibition at 1 µM (NEK7): 0.9%
- inhibition at 1 µM (PAK1): -5.8 ± 0.2%
- inhibition at 1 µM (PAK6): -5.4%
- inhibition at 1 µM (PGK): -21.7 ± 0.2%
- inhibition at 1 µM (PKCq): 0.7%
- inhibition at 1 µM (PKCz): -0.2%
- inhibition at 1 µM (PLK1): 5.7 ± 0.3%
- inhibition at 1 µM (PLK4): -38.5 ± 1%
- inhibition at 1 µM (RSK2): 5.6 ± 0.1%
- inhibition at 1 µM (SLK): 2.5 ± 0.1%
- inhibition at 1 µM (SRM): 3.5 ± 0.1%
- inhibition at 1 µM (TSSK2): 0.7%
- inhibition at 1 µM (TYK2): -0.1%
- inhibition at 1 µM (WNK1): -3.3%
- inhibition at 1 µM (p70S6Kb): 1.9%
